tested on: HCT116; test: In Vitro cytotoxicity measured by the cell colony formation assay; assay type: cell-based, human; conditions: Homo sapiens, HCT-116; read-out: IN VITRO ID 50 HCT116
Procedure: Four hundred cells (HCT116) were plated in 60 mm Petri dishes containing 2.7 mL of medium (modified McCoy's 5a medium containing 10% fetal bovine serum and 100 units/mL penicillin and […] streptomycin). The cells were incubated in a CO2 incubator at 37 °C for 5 h for attachment to the bottom of Petri dishes. The compounds identified in Example 2 were made up fresh in medium at ten times the final concentration, and then 0.3 mL of this stock solution was added to the 2.7 mL of medium in the dish. The cells were then incubated with drugs for 72 h at 37 °C. At the end of incubation the drug-containing media were decanted, the dishes were rinsed with 4 mL of Hank's Balance Salt Solution (HBSS), 5 mL of fresh medium was added, and the dishes were returned to the incubator for colony formation. The cell colonies were counted using a colony counter after incubation for 7 days.

Which IC50 does the source give for CCC(=O)O[C@H]1C(=O)[C@@]2(C)[C@H]([C@H](OC(=O)c3ccccc3)[C@]3(O)C[C@H](OC(=O)[C@H](O)[C@@H](NC(=O)OC(C)(C)C)c4cccnc4)C(C)=C1C3(C)C)[C@]1(OC(C)=O)CO[C@@H]1C[C@@H]2O [Compound 0517] here?
The IC50 was < 10 nM.

Which IC50 does the source give for CCC(=O)O[C@H]1C(=O)[C@@]2(C)[C@H]([C@H](OC(=O)c3ccccc3)[C@]3(O)C[C@H](OC(=O)[C@H](O)[C@@H](NC(=O)OC(C)(C)C)c4ccncc4)C(C)=C1C3(C)C)[C@]1(OC(C)=O)CO[C@@H]1C[C@@H]2O [Compound 0521] here?
Its IC50 is < 1 nM.

CCC(=O)O[C@H]1C(=O)[C@@]2(C)[C@H]([C@H](OC(=O)c3ccccc3)[C@]3(O)C[C@H](OC(=O)[C@H](O)[C@@H](NC(=O)OC(C)(C)C)c4ccoc4)C(C)=C1C3(C)C)[C@]1(OC(C)=O)CO[C@@H]1C[C@@H]2O [Compound 0549] was tested. Which IC50 did it give?
The IC50 was < 10 nM.

How did the IC50 turn out when CCC(=O)O[C@H]1C(=O)[C@@]2(C)[C@H]([C@H](OC(=O)c3ccccc3)[C@]3(O)C[C@H](OC(=O)[C@H](O)[C@@H](NC(=O)OC(C)(C)C)c4ccsc4)C(C)=C1C3(C)C)[C@]1(OC(C)=O)CO[C@@H]1C[C@@H]2O [Compound 0562] was run?
The IC50 was < 1 nM.

With CCC(=O)O[C@H]1C(=O)[C@@]2(C)[C@H]([C@H](OC(=O)c3ccccc3)[C@]3(O)C[C@H](OC(=O)[C@H](O)[C@@H](NC(=O)OC(C)(C)C)C4CC4)C(C)=C1C3(C)C)[C@]1(OC(C)=O)CO[C@@H]1C[C@@H]2O [Compound 0578] as the molecule, how does the IC50 read?
The IC50 was < 1 nM.

How did the IC50 turn out when CCC(=O)O[C@H]1C(=O)[C@@]2(C)[C@H]([C@H](OC(=O)c3ccccc3)[C@]3(O)C[C@H](OC(=O)[C@H](O)[C@@H](NC(=O)OC(C)(C)C)C(C)C)C(C)=C1C3(C)C)[C@]1(OC(C)=O)CO[C@@H]1C[C@@H]2O [Compound 0583] was run?
Its IC50 is < 10 nM.

For CCC(=O)O[C@H]1C(=O)[C@@]2(C)[C@H]([C@H](OC(=O)c3ccccc3)[C@]3(O)C[C@H](OC(=O)[C@H](O)[C@@H](NC(=O)OC(C)(C)C)C4CCC4)C(C)=C1C3(C)C)[C@]1(OC(C)=O)CO[C@@H]1C[C@@H]2O [Compound 0596], which IC50 is on record?
The IC50 was < 10 nM.

CCC(=O)O[C@H]1C(=O)[C@@]2(C)[C@H]([C@H](OC(=O)c3ccccc3)[C@]3(O)C[C@H](OC(=O)[C@H](O)[C@@H](NC(=O)OC(C)(C)C)c4ccc([N+](=O)[O-])cc4)C(C)=C1C3(C)C)[C@]1(OC(C)=O)CO[C@@H]1C[C@@H]2O [Compound 0602] was tested. Which IC50 did it give?
Its IC50 is < 1 nM.

How did the IC50 turn out when CCC(=O)O[C@H]1C(=O)[C@@]2(C)[C@H]([C@H](OC(=O)c3ccccc3)[C@]3(O)C[C@H](OC(=O)[C@H](O)[C@H](C=C(C)C)NC(=O)c4ccccc4)C(C)=C1C3(C)C)[C@]1(OC(C)=O)CO[C@@H]1C[C@@H]2O [Compound 0625] was run?
The IC50 was < 1 nM.

Which IC50 does the source give for CCC(=O)O[C@H]1C(=O)[C@@]2(C)[C@H]([C@H](OC(=O)c3ccccc3)[C@]3(O)C[C@H](OC(=O)[C@H](O)[C@@H](NC(=O)c4ccccc4)c4ccccn4)C(C)=C1C3(C)C)[C@]1(OC(C)=O)CO[C@@H]1C[C@@H]2O [Compound 0634] here?
Its IC50 is < 10 nM.

How did the IC50 turn out when CCC(=O)O[C@H]1C(=O)[C@@]2(C)[C@H]([C@H](OC(=O)c3ccccc3)[C@]3(O)C[C@H](OC(=O)[C@H](O)[C@@H](NC(=O)c4ccccc4)c4cccnc4)C(C)=C1C3(C)C)[C@]1(OC(C)=O)CO[C@@H]1C[C@@H]2O [Compound 0647] was run?
The IC50 was 12 nM.

Which IC50 does the source give for CCC(=O)O[C@H]1C(=O)[C@@]2(C)[C@H]([C@H](OC(=O)c3ccccc3)[C@]3(O)C[C@H](OC(=O)[C@H](O)[C@@H](NC(=O)c4ccccc4)c4ccncc4)C(C)=C1C3(C)C)[C@]1(OC(C)=O)CO[C@@H]1C[C@@H]2O [Compound 0659] here?
Its IC50 is < 1 nM.

Which IC50 does the source give for CCC(=O)O[C@H]1C(=O)[C@@]2(C)[C@H]([C@H](OC(=O)c3ccccc3)[C@]3(O)C[C@H](OC(=O)[C@H](O)[C@@H](NC(=O)c4ccccc4)c4ccsc4)C(C)=C1C3(C)C)[C@]1(OC(C)=O)CO[C@@H]1C[C@@H]2O [Compound 0691] here?
The IC50 was < 1 nM.

How did the IC50 turn out when CCC(=O)O[C@H]1C(=O)[C@@]2(C)[C@H]([C@H](OC(=O)c3ccccc3)[C@]3(O)C[C@H](OC(=O)[C@H](O)[C@@H](NC(=O)c4ccccc4)C(C)C)C(C)=C1C3(C)C)[C@]1(OC(C)=O)CO[C@@H]1C[C@@H]2O [Compound 0719] was run?
The IC50 was < 10 nM.

How did the IC50 turn out when CCC(=O)O[C@H]1C(=O)[C@@]2(C)[C@H]([C@H](OC(=O)c3ccccc3)[C@]3(O)C[C@H](OC(=O)[C@H](O)[C@@H](NC(=O)c4ccccc4)C4CCC4)C(C)=C1C3(C)C)[C@]1(OC(C)=O)CO[C@@H]1C[C@@H]2O [Compound 0720] was run?
The IC50 was < 10 nM.

How did the IC50 turn out when CCC(=O)O[C@H]1C(=O)[C@@]2(C)[C@H]([C@H](OC(=O)c3ccccc3)[C@]3(O)C[C@H](OC(=O)[C@H](O)[C@@H](NC(=O)c4ccccc4)c4ccc([N+](=O)[O-])cc4)C(C)=C1C3(C)C)[C@]1(OC(C)=O)CO[C@@H]1C[C@@H]2O [Compound 0732] was run?
Its IC50 is < 10 nM.

CC(=O)O[C@@]12CO[C@@H]1C[C@H](O)[C@@]1(C)C(=O)[C@H](OC(=O)C3CC3)C3=C(C)[C@@H](OC(=O)[C@H](O)[C@@H](NC(=O)OC(C)(C)C)c4ccco4)C[C@@](O)([C@@H](OC(=O)c4ccccc4)[C@H]21)C3(C)C [Compound 0843] was tested. Which IC50 did it give?
The IC50 was < 1 nM.

CC(=O)O[C@@]12CO[C@@H]1C[C@H](O)[C@@]1(C)C(=O)[C@H](OC(=O)C3CC3)C3=C(C)[C@@H](OC(=O)[C@H](O)[C@@H](NC(=O)OC(C)(C)C)C4CC4)C[C@@](O)([C@@H](OC(=O)c4ccccc4)[C@H]21)C3(C)C [Compound 0860] was tested. Which IC50 did it give?
Its IC50 is < 1 nM.

With CC(=O)O[C@@]12CO[C@@H]1C[C@H](O)[C@@]1(C)C(=O)[C@H](OC(=O)C3CC3)C3=C(C)[C@@H](OC(=O)[C@H](O)[C@@H](NC(=O)OC(C)(C)C)c4ccc([N+](=O)[O-])cc4)C[C@@](O)([C@@H](OC(=O)c4ccccc4)[C@H]21)C3(C)C [Compound 0879] as the molecule, how does the IC50 read?
The IC50 was < 1 nM.

With CC(=O)O[C@@]12CO[C@@H]1C[C@H](O)[C@@]1(C)C(=O)[C@H](OC(=O)C3CC3)C3=C(C)[C@@H](OC(=O)[C@H](O)[C@@H](NC(=O)OC(C)(C)C)c4ccccc4)C[C@@](O)([C@@H](OC(=O)c4ccccc4)[C@H]21)C3(C)C [Compound 0882] as the molecule, how does the IC50 read?
The IC50 was < 1 nM.

CC(=O)O[C@@]12CO[C@@H]1C[C@H](O)[C@@]1(C)C(=O)[C@H](OC(=O)C3CC3)C3=C(C)[C@@H](OC(=O)[C@H](O)[C@H](C=C(C)C)NC(=O)c4ccccc4)C[C@@](O)([C@@H](OC(=O)c4ccccc4)[C@H]21)C3(C)C [Compound 0890] was tested. Which IC50 did it give?
The IC50 was < 1 nM.

With CC(=O)O[C@@]12CO[C@@H]1C[C@H](O)[C@@]1(C)C(=O)[C@H](OC(=O)C3CC3)C3=C(C)[C@@H](OC(=O)[C@H](O)[C@@H](NC(=O)c4ccccc4)c4cccs4)C[C@@](O)([C@@H](OC(=O)c4ccccc4)[C@H]21)C3(C)C [Compound 0919] as the molecule, how does the IC50 read?
The IC50 was < 1 nM.

How did the IC50 turn out when CC(=O)O[C@@]12CO[C@@H]1C[C@H](O)[C@@]1(C)C(=O)[C@H](OC(=O)C3CC3)C3=C(C)[C@@H](OC(=O)[C@H](O)[C@@H](NC(=O)c4ccccc4)C4CC4)C[C@@](O)([C@@H](OC(=O)c4ccccc4)[C@H]21)C3(C)C [Compound 0923] was run?
The IC50 was < 1 nM.

For CC(=O)O[C@@]12CO[C@@H]1C[C@H](O)[C@@]1(C)C(=O)[C@H](OC(=O)C3CC3)C3=C(C)[C@@H](OC(=O)[C@H](O)[C@@H](NC(=O)c4ccccc4)c4ccccc4)C[C@@](O)([C@@H](OC(=O)c4ccccc4)[C@H]21)C3(C)C [Compound 0937], which IC50 is on record?
The IC50 was < 10 nM.

Which IC50 does the source give for CCCC(=O)O[C@H]1C(=O)[C@@]2(C)[C@H]([C@H](OC(=O)c3ccccc3)[C@]3(O)C[C@H](OC(=O)[C@H](O)[C@@H](NC(=O)OC(C)(C)C)c4cccnc4)C(C)=C1C3(C)C)[C@]1(OC(C)=O)CO[C@@H]1C[C@@H]2O [Compound 0966] here?
The IC50 was < 10 nM.

With CCCC(=O)O[C@H]1C(=O)[C@@]2(C)[C@H]([C@H](OC(=O)c3ccccc3)[C@]3(O)C[C@H](OC(=O)[C@H](O)[C@@H](NC(=O)OC(C)(C)C)c4ccncc4)C(C)=C1C3(C)C)[C@]1(OC(C)=O)CO[C@@H]1C[C@@H]2O [Compound 0978] as the molecule, how does the IC50 read?
Its IC50 is < 1 nM.

With CCCC(=O)O[C@H]1C(=O)[C@@]2(C)[C@H]([C@H](OC(=O)c3ccccc3)[C@]3(O)C[C@H](OC(=O)[C@H](O)[C@@H](NC(=O)OC(C)(C)C)C4CC4)C(C)=C1C3(C)C)[C@]1(OC(C)=O)CO[C@@H]1C[C@@H]2O [Compound 1020] as the molecule, how does the IC50 read?
Its IC50 is < 1 nM.

For CCCC(=O)O[C@H]1C(=O)[C@@]2(C)[C@H]([C@H](OC(=O)c3ccccc3)[C@]3(O)C[C@H](OC(=O)[C@H](O)[C@@H](NC(=O)OC(C)(C)C)C(C)C)C(C)=C1C3(C)C)[C@]1(OC(C)=O)CO[C@@H]1C[C@@H]2O [Compound 1031], which IC50 is on record?
Its IC50 is < 10 nM.

For CCCC(=O)O[C@H]1C(=O)[C@@]2(C)[C@H]([C@H](OC(=O)c3ccccc3)[C@]3(O)C[C@H](OC(=O)[C@H](O)[C@@H](NC(=O)OC(C)(C)C)C4CCC4)C(C)=C1C3(C)C)[C@]1(OC(C)=O)CO[C@@H]1C[C@@H]2O [Compound 1044], which IC50 is on record?
Its IC50 is < 1 nM.

For CCCC(=O)O[C@H]1C(=O)[C@@]2(C)[C@H]([C@H](OC(=O)c3ccccc3)[C@]3(O)C[C@H](OC(=O)[C@H](O)[C@@H](NC(=O)OC(C)(C)C)c4ccccc4)C(C)=C1C3(C)C)[C@]1(OC(C)=O)CO[C@@H]1C[C@@H]2O [Compound 1060], which IC50 is on record?
The IC50 was < 1 nM.

With CC(=O)O[C@@]12CO[C@@H]1C[C@H](O)[C@@]1(C)C(=O)[C@H](OC(=O)c3cccs3)C3=C(C)[C@@H](OC(=O)[C@H](O)[C@H](C=C(C)C)NC(=O)OC(C)(C)C)C[C@@](O)([C@@H](OC(=O)c4ccccc4)[C@H]21)C3(C)C [Compound 1879] as the molecule, how does the IC50 read?
Its IC50 is < 10 nM.

Which IC50 does the source give for CC(=O)O[C@@]12CO[C@@H]1C[C@H](O)[C@@]1(C)C(=O)[C@H](OC(=O)c3cccs3)C3=C(C)[C@@H](OC(=O)[C@H](O)[C@@H](NC(=O)OC(C)(C)C)c4ccccn4)C[C@@](O)([C@@H](OC(=O)c4ccccc4)[C@H]21)C3(C)C [Compound 1883] here?
Its IC50 is < 10 nM.
